Reference: patent publication US20120196899A1, “METHODS AND PRODUCTS FOR TREATING INFLAMMATION” (Rock Creek Pharmaceuticals, Inc., priority 2010, published 2012)
Several values for one entry are separate records, joined by “and”; a condition that tells them apart may be missing. Identical values can stand only once.

Key:
[1] = Hematology, day 15; type: in vivo, Sprague-Dawley rats
Text: (§1) On day 15, urine was collected on all surviving animals for urinalysis. The animals were euthanized and bled via cardiac puncture. Blood was collected for hematology, clinical chemistry, and coagulation analysis. Tissues were collected, weighed, and stored in 10% neutral-buffered formalin for possible future analysis.

[2] = target: nAChR α3/β4 (Homo sapiens, UniProt P30926+P32297); experiment: nAChR α3/β4 channel agonist assay (FLIPR, Fluo-8 calcium); details: 0.3-1000 μM; maximal stimulation not achieved
Experimental: (§2) The following three (3) channels were evaluated: • 1. nAChR α3/β4 (encoded by the human CHRNA3 and CHRNB4 gene and stably expressed in CHO cells); • 2. nAChR α4/β2 (CHRNA4 and CHRNB2 gene and transiently expressed in HEK293 cells); and • 3. nAChR α7 (encoded by the human nicotinic α7 gene coexpressed in CHO cells with the chaperone RIC-3 encoded by the human RIC3 gene).
(§3) The ability of each test article to act as an agonist, a positive allosteric modulator or antagonist of three nAChR receptor channels was evaluated in the presence of 0.1 atropine. Both test articles were evaluated for responses on each nAChR channel at eight (8) concentrations: 0.3, 1, 3, 10, 30, 100, 300, and 1000 μM (n=4 for each concentration).
HEK293 or CHO cells were transiently or stably transfected with the appropriate human ion channel cDNAs. Stable transfectants were selected by coexpression with the antibiotic-resistance gene(s) incorporated into the expression plasmid(s). Selection pressure was maintained by including selection antibiotics in the culture medium. HEK293 cells were cultured in Dulbecco's Modified Eagle Medium/Nutrient Mixture F-12 (D-MEM/F-12) supplemented with 10% fetal bovine serum, 100 U/mL penicillin G sodium, 100 g/mL streptomycin sulfate and appropriate selection antibiotics. CHO cells were cultured in Ham's F-12 supplemented with 10% fetal bovine serum, 100 U/mL penicillin G sodium, 100 g/mL streptomycin sulfate and appropriate selection antibiotics.
For FLIPR TETRA™ assay, cells were plated in 384-well black wall, flat clear bottom microtiter plates (Type: BD Biocoat Poly-D-Lysine Multiwell Cell Culture Plate) at 20,000 to 30,000 cells per well (384-well plate). Cells were incubated at 37° C. overnight or until the cells reached a sufficient density in the wells (near confluent monolayer) to use in fluorescence assays. For α4β2 assay, cells were incubated at 27° C. for at least 7 hours before use.
Experiments were performed with either the FLIPR calcium sensitive dye kit (Fluo-8, ABDbioquest, for nAChR α3/β4 and nAChR α7) or FLIPR membrane potential kit (Molecular Devices, for nAChR α4/β2) according to the manufacturer's instructions. Briefly, cells were incubated with 201 dye for 30 min at 37° C. After dye loading period, for the agonist assay, 5 μl of the test, vehicle, or control articles at concentration of 5 times of final concentration were applied to the cells without stimulation. For the positive allosteric modulation (PAM) and antagonist assay, after test article application, the cells were stimulated with either low dose (for PAM) or high dose (for antagonist) of Ach.
Concentration-response data was fitted to a Hill equation of the following form:
where Base is the response at low concentrations of test article, Max is the maximum response at high concentrations, xhalf is the EC50 or IC50, the concentration of test article producing either half-maximal activation or inhibition, and rate is the Hill coefficient. Nonlinear least squares fits were made assuming a simple one-to-one binding model.
The ability of both test articles to act as an agonist of nAChR carried out in the absence of the positive control agonist. The signal elicited in the presence of the positive control agonist, 30 μM acetylcholine (Ach) was set to 100% and the signal from the vehicle control, HEPES-buffered physiological saline (HBPS) solution was set to 0%.

[3] = target: T1, nAChR α7 (Homo sapiens, UniProt P36544); experiment: nAChR α7 channel agonist assay (FLIPR, with PNU-120596); type: cell-based; details: with 10 μM PNU-120596; maximal stimulation not achieved
T1 construct: host or cells: CHO cells
Experimental: Therefore, the assay of agonist activity for either Ach or for the test articles was conducted in the presence of the positive allosteric modulator.

[4] = Coagulation parameters (aPTT, PT), day 15; type: in vivo, Sprague-Dawley rats
Text: as §1
Individual values for the coagulation parameters activated partial thromboplastin (aPTT) and prothrombin times (PT) for each animal are listed in Table 34 (normal ranges, Table 30). These are summarized in terms of descriptive statistics in Table 25.

[5] = target: T2, nAChR α4/β2 (Homo sapiens, UniProt P17787+P43681); type: cell-based; details: 100 μM Ach + 0.3 μM epibatidine; not concentration-dependent, IC50 not determinable
T2 construct: host or cells: HEK293 cells, transient transfection
Experimental: as §2, §3
HEK293 or CHO cells were transiently or stably transfected with the appropriate human ion channel cDNAs. Stable transfectants were selected by coexpression with the antibiotic-resistance gene(s) incorporated into the expression plasmid(s). […]
For FLIPR TETRA™ assay, cells were plated in 384-well black wall, flat clear bottom microtiter plates (Type: BD Biocoat Poly-D-Lysine Multiwell Cell Culture Plate) at 20,000 to 30,000 cells per well (384-well plate). Cells were incubated at 37° C. overnight or until the cells reached a sufficient density in the wells (near confluent monolayer) to use in fluorescence assays. […]

[6] = anatabine 0.75 mg/kg, individual animals C1-C10 (M, F)
[7] = anatabine 0.1 mg/kg, male rats, individual animals
[8] = anatabine 0.75 mg/kg, female rats, individual animals
[9] = anatabine 0.75 mg/kg, male rats, individual animals

T2 sequence (P17787 26-502): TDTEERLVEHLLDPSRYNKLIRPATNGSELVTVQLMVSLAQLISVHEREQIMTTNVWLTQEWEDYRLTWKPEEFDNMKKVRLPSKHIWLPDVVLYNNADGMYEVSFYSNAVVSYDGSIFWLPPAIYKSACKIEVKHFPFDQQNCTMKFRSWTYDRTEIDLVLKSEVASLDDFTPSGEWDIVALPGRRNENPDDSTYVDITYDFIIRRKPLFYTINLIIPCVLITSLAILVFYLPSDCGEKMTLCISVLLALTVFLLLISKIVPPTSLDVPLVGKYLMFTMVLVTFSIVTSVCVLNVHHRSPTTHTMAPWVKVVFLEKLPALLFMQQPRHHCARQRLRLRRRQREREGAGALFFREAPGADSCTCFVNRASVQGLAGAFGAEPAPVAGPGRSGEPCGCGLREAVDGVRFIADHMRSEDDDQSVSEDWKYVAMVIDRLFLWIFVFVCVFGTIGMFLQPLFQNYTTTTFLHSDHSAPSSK
T2 sequence (P43681 29-627): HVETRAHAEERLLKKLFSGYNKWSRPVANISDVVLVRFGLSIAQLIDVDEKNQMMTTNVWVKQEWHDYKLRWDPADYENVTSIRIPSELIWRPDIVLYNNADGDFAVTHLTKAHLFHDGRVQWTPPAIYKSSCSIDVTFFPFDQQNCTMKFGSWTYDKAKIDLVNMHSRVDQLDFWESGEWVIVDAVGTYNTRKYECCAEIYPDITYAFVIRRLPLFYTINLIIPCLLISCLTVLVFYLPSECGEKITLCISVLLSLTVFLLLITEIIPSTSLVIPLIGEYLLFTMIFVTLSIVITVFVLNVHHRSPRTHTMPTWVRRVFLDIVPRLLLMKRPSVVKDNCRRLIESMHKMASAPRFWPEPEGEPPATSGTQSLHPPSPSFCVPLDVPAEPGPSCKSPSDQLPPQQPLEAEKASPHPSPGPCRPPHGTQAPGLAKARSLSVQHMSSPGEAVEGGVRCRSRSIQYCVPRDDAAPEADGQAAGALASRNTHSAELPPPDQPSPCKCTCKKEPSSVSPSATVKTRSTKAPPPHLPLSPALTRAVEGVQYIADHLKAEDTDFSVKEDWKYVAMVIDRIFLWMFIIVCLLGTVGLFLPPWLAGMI
T1 sequence (P36544 23-502): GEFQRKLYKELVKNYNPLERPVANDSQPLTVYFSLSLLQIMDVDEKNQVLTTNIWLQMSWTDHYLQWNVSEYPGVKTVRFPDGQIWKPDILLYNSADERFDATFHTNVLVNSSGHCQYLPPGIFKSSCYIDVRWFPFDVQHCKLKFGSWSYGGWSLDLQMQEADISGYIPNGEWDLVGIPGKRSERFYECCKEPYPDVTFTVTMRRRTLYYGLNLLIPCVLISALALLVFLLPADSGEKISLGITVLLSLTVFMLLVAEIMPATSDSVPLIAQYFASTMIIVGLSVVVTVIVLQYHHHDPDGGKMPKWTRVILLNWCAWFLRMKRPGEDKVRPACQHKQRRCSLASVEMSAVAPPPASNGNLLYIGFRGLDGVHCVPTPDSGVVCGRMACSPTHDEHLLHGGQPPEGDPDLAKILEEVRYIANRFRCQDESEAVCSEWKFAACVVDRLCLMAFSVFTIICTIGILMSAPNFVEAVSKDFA
Sequence of nAChR α3/β4 (P32297 32-505): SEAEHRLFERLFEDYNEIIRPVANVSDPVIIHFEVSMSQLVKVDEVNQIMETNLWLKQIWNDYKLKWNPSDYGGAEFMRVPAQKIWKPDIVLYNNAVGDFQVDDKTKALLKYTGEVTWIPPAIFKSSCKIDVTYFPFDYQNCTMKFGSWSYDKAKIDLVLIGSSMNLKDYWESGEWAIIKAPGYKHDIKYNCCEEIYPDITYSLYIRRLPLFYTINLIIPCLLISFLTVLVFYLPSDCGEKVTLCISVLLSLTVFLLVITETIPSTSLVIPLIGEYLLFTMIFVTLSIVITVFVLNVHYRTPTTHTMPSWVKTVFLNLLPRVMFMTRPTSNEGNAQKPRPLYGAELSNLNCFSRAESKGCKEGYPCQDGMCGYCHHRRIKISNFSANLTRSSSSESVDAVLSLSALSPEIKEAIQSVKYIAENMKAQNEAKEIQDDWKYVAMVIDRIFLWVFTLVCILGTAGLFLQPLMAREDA
Sequence of nAChR α3/β4 (P30926 22-498): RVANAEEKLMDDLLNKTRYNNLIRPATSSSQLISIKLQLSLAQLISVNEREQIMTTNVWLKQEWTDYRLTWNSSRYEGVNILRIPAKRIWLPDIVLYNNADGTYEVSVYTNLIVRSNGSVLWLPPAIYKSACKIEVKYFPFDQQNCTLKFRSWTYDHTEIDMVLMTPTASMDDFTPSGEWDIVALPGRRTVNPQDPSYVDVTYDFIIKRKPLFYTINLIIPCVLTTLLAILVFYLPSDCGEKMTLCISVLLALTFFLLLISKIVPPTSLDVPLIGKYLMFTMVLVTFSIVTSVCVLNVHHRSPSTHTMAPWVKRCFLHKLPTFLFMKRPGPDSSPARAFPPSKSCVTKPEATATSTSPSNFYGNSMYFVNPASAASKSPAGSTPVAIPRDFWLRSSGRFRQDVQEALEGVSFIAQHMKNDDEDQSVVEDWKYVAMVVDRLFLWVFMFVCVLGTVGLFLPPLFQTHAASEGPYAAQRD

Structure (SMILES): C1=CCC(c2cccnc2)NC1 (racemic) [Anatabine, 1,2,3,6-tetrahydro-[2,3′]bipyridinyl]
- MCH ([1]; anatabine 0.1 mg/kg, individual animals B1-B10 (M, F)): 21.9 UUG and 21.8 UUG
- MCH [1, 6]: 20.3 UUG and 21 UUG and 22 UUG and 19.9 UUG
- MCHC [1, 6]: 34.2% and 34.3%
- EOSINOPHIL ([1]; female, 0.1 mg/kg, group mean): 0.0%
- HCT ([1]; female, 0.1 mg/kg, group mean): 46.4%
- LYMPHOCYTE ([1]; female, 0.1 mg/kg, group mean): 90.2%
- MCHC ([1]; female, 0.1 mg/kg, group mean): 33.7%
- MCV ([1]; female, 0.1 mg/kg, group mean): 60.0 fL
- MONOCYTE ([1]; female, 0.1 mg/kg, group mean): 1.8%
- NEUTROPHIL SEG ([1]; female, 0.1 mg/kg, group mean): 8.0%
- PLATELET COUNT ([1]; female, 0.1 mg/kg, group mean): 997300 µL⁻¹
- RBC ([1]; female, 0.1 mg/kg, group mean): 7.8e+06 µL⁻¹
- RETICULOCYTE COUNT ([1]; female, 0.1 mg/kg, group mean): 4.5%
- WBC ([1]; female, 0.1 mg/kg, group mean): 9300 µL⁻¹
- EOSINOPHIL ([1]; female, 0.75 mg/kg, group mean): 0.0%
- HCT ([1]; female, 0.75 mg/kg, group mean): 45.2%
- HGB ([1]; female, 0.75 mg/kg, group mean): 15.4 g/dL
- LYMPHOCYTE ([1]; female, 0.75 mg/kg, group mean): 90.6%
- MCV ([1]; female, 0.75 mg/kg, group mean): 59.8 fL
- MONOCYTE ([1]; female, 0.75 mg/kg, group mean): 0.8%
- NEUTROPHIL SEG ([1]; female, 0.75 mg/kg, group mean): 8.6%
- PLATELET COUNT ([1]; female, 0.75 mg/kg, group mean): 1.2696e+06 µL⁻¹
- RBC ([1]; female, 0.75 mg/kg, group mean): 7.5e+06 µL⁻¹
- RETICULOCYTE COUNT ([1]; female, 0.75 mg/kg, group mean): 3.3%
- WBC ([1]; female, 0.75 mg/kg, group mean): 10300 µL⁻¹
- mean corpuscular volume (MCV) and mean corpuscular hemoglobin (MCH) ([1]; females, anatabine […], nicotine 0.75 mg/kg single i.v.): small, but statistically significant decreases
- EOSINOPHIL ([1]; male, 0.1 mg/kg, group mean): 0.2%
- HCT ([1]; male, 0.1 mg/kg, group mean): 47.1%
- HGB ([1]; male, 0.1 mg/kg, group mean): 15.8 g/dL
- LYMPHOCYTE ([1]; male, 0.1 mg/kg, group mean): 89.2%
- MCV ([1]; male, 0.1 mg/kg, group mean): 63.4 fL
- MONOCYTE ([1]; male, 0.1 mg/kg, group mean): 2.0%
- NEUTROPHIL SEG ([1]; male, 0.1 mg/kg, group mean): 8.6%
- PLATELET COUNT ([1]; male, 0.1 mg/kg, group mean): 1.2486e+06 µL⁻¹
- RBC ([1]; male, 0.1 mg/kg, group mean): 7.4e+06 µL⁻¹
- RETICULOCYTE COUNT ([1]; male, 0.1 mg/kg, group mean): 5.5%
- WBC ([1]; male, 0.1 mg/kg, group mean): 15600 µL⁻¹
- EOSINOPHIL ([1]; male, 0.75 mg/kg, group mean): 0.0%
- HCT ([1]; male, 0.75 mg/kg, group mean): 45.8%
- LYMPHOCYTE ([1]; male, 0.75 mg/kg, group mean): 88.8%
- MCHC ([1]; male, 0.75 mg/kg, group mean): 34.0%
- MCV ([1]; male, 0.75 mg/kg, group mean): 61.4 fL
- MONOCYTE ([1]; male, 0.75 mg/kg, group mean): 1.4%
- NEUTROPHIL SEG ([1]; male, 0.75 mg/kg, group mean): 9.8%
- PLATELET COUNT ([1]; male, 0.75 mg/kg, group mean): 1.3258e+06 µL⁻¹
- RBC ([1]; male, 0.75 mg/kg, group mean): 7.5e+06 µL⁻¹
- RETICULOCYTE COUNT ([1]; male, 0.75 mg/kg, group mean): 4.4%
- WBC ([1]; male, 0.75 mg/kg, group mean): 12100 µL⁻¹
- agonist activity [2]: showed agonist activity
- agonist activity [3]: showed agonist activity
- ACTIVE PARTIAL THROMBOPLASTIN TIME ([4]; anatabine 0.1 mg/kg, female rats, individual animals): 31.1 s and 34.2 s and 26 s and 28.9 s
- ACTIVE PARTIAL THROMBOPLASTIN TIME [4, 7]: 36.4 s and 28.9 s and 32 s
- PROTHROMBIN TIME [4, 7]: 13.4 s and 12.5 s
- ACTIVE PARTIAL THROMBOPLASTIN TIME [4, 8]: 32.5 s and 32.7 s and 38.2 s
- PROTHROMBIN TIME [4, 8]: 23.8 s
- ACTIVE PARTIAL THROMBOPLASTIN TIME [4, 9]: 39.7 s and 43.9 s and 50.4 s
- PROTHROMBIN TIME [4, 9]: 17.9 s
- ACTIVATED PARTIAL THROMBOPLASTIN TIME ([4]; female, 0.1 mg/kg, group mean): 29.4 s
- ACTIVATED PARTIAL THROMBOPLASTIN TIME ([4]; female, 0.75 mg/kg, group mean): 33.3 s
- PROTHROMBIN TIME ([4]; female, 0.75 mg/kg, group mean): 14.1 s
- PROTHROMBIN TIME ([4]; male, 0.1 mg/kg, group mean): 12.8 s
- ACTIVATED PARTIAL THROMBOPLASTIN TIME ([4]; male, 0.75 mg/kg, group mean): 38.7 s
- PROTHROMBIN TIME ([4]; male, 0.75 mg/kg, group mean): 13.3 s
- inhibition of receptor activity [5]: inhibited receptor activity
